Experimental data as given in article PMC8341105, “Mapping the energy landscape of protein–ligand binding via linear free energy relationships determined by protein NMR relaxation dispersion” (RSC Chemical Biology, 2020).
Several values for one entry are separate records, joined by “and”; a condition that tells them apart may be missing. Identical values can stand only once. Like-named read-outs stand apart in the source and are kept apart here.

How the values were obtained:
[1] = biological target: T1, galectin-3C (Homo sapiens, UniProt P17931); experiment: 15N CPMG relaxation dispersion of ligand binding kinetics; settings: for kex, Group 1: Group 1 residues fitted jointly: slow exchange corresponding to ligand binding/unbinding; for kex, Group 2: Group 2 residues fitted jointly: fast conformational exchange independent of ligand binding/unbinding; for Population (relative population of the bound state, pB), Group 1: global fit of Group 1 residues, near-saturated NMR sample
T1 construct: the carbohydrate-recognition domain of galectin-3 (galectin-3C); made in house
T1 sequence (P17931 118-248 limits assumed): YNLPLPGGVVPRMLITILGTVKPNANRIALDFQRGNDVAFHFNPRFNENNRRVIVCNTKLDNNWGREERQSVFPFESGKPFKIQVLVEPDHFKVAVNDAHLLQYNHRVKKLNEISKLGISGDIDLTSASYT
From the text: We measured equilibrium exchange between free and ligand-bound states of galectin-3C using ^15N CPMG relaxation dispersion experiments[15] acquired on near-saturated samples at two static magnetic field strengths. […] We analyzed the relaxation dispersion profiles using a two-state exchange model (eqn (1)–(4)).[18,27,28] […] All residues within a given group were then fitted jointly to yield global exchange parameters, kex and p, and residue-specific ΔδCPMG (ESI, ^† Table S1 lists all residues included in the fit for the two groups of each complex together with the fitted parameters). In the following, we focus on the exchange related to ligand binding and release.
In the present case, we determined all exchange parameters directly from the relaxation dispersion data. […] This requires that the ligand and protein concentrations are measured accurately, Kd is known from previous experiments, and the NMR spectra of the free and bound states are available; these requirements are easily met in most cases. While the amplitude and shape of the relaxation dispersion profile depends intricately on the populations, rates, and chemical shift difference, it may be expected that off-rates can be determined for systems with dissociation constants in the range of 0.1 μM to 1 mM.
^15N-Labeled galectin-3C samples were prepared by extensive dialysis (Slide-A-Lyzer MINI Dialysis, ThermoScientific) against 5 mM 4-(2-hydroxyethyl)-1-piperazinethanesulfonic acid (HEPES) buffer to remove all lactose, followed by centrifugation at 14 000 rpm for 5 minutes to remove any aggregates. The protein concentration was determined by UV absorption at 280 nm, as described before.[33] […] Ligand–galectin-3C complexes were prepared by titrating freshly sonicated stock solutions of the ligands into apo galectin-3C samples while monitoring the galectin-3C chemical shifts in the ^15N heteronuclear single-quantum correlation (HSQC) spectrum. At the end of each titration, the total amount of added DMSO in the L2 and L3 samples was 2% (v/v).
Relaxation-compensated CPMG relaxation dispersion experiments[15] were performed using the constant-time approach[34] covering 18–24 different refocusing frequencies, νcp. An equilibration period of 5 ms was added prior to the CPMG refocusing pulse train to ensure that the initial magnetizations reflect the relative populations of the exchanging states.[35] […] Spectra were processed using NMRPipe.[37] The processing protocol involved a solvent filter, cosine-squared apodization functions, zero filling to twice the number of increments in all dimensions, and a polynomial baseline correction in the ^1H dimension. Relaxation rates were extracted using PINT, which employs line-shape fitting to resolve overlapped peaks.[38] Peak intensities were evaluated using a weighted sum of Lorentzian and Gaussian line shapes. Standard deviations were determined by propagating the errors of intensities estimated from the baseplane noise. Error estimates are reported as one standard deviation.
The relaxation dispersion data were analyzed using CPMGfit v2.22, an in-house Matlab program.

[2] = biological target: T1, galectin-3C; parameters: method as in PMID 20873837; settings: ITC under sample conditions near-identical to those used for CPMG dispersion experiments; determined previously; cited from earlier work
[3] = k on is determined from Kd and koff (kon = koff/Kd)
[4] = koff = kex(1 − pB), 15N CPMG relaxation dispersion, 301 K, near-saturated samples

Row | Molecule | kex, Group 1 [1] | kex, Group 2 [1] | Population (relative population of the bound state, pB), Group 1 [1] | kon [1, 3] | koff [1, 4] | Kd [2] | koff [1] | kon [1] | kon ([1]; k on is determined from Kd and koff (kon = koff/Kd), read-out: k on) | koff ([1]; koff = kex(1 − pB), 15N CPMG relaxation dispersion, 301 K, near-saturated samples, read-out: k off)
1 | 3′-(4-methoxy-2,3,5,6-tetrafluorobenzamido)-N-acetyllactosamine [Ligand L3] | 123 ± 20 s⁻¹ | 4110 ± 760 s⁻¹ | 0.93–0.94 and 0.94 ± 0.01 | 2.4 ± 0.4 10^6 M^−1 s^−1 | 8 ± 1 s⁻¹ | 3.3 ± 0.1 µM |  |  |  | 
2 | 3′-benzamido-N-acetyllactosamine [Ligand L2] | 385 ± 126 s⁻¹ | 5370 ± 850 s⁻¹ | 0.93–0.94 and 0.93 ± 0.04 | 1.6 ± 0.5 10^6 M^−1 s^−1 | 28 ± 9 s⁻¹ | 18.2 ± 0.2 µM |  |  |  | 
3 | OC[C@H]1O[C@@H](S[C@@H]2O[C@H](CO)[C@@H](O)[C@H](O)[C@H]2O)[C@H](O)[C@@H](n2cc(-c3cccc(F)c3)nn2)[C@H]1O [mL4, meta-fluoro-phenyltriazolyl-galactosylthioglucoside] | 808 ± 55 s⁻¹ | 4804 ± 448 s⁻¹ |  |  |  |  | 8 ± 1 s⁻¹ | 3.9e+06 ± 700000 M⁻¹ s⁻¹ |  | 
4 | OC[C@H]1O[C@@H](S[C@@H]2O[C@H](CO)[C@@H](O)[C@H](O)[C@H]2O)[C@H](O)[C@@H](n2cc(-c3ccccc3F)nn2)[C@H]1O [oL4, ortho-fluoro-phenyltriazolyl-galactosylthioglucoside] | 1210 ± 209 s⁻¹ | 15800 ± 386 s⁻¹ | 0.97 ± 0.01 |  |  |  |  |  | 4.4e+06 ± 1.1e+06 M⁻¹ s⁻¹ | 32 ± 5 s⁻¹
5 | OC[C@H]1O[C@@H](S[C@@H]2O[C@H](CO)[C@@H](O)[C@H](O)[C@H]2O)[C@H](O)[C@@H](n2cc(-c3ccc(F)cc3)nn2)[C@H]1O [pL4, para-fluoro-phenyltriazolyl-galactosylthioglucoside] | 859 ± 115 s⁻¹ | 8386 ± 691 s⁻¹ | 0.99 ± 0.01 |  |  | 2.5 ± 0.3 µM | 13 ± 1 s⁻¹ | 5.2e+06 ± 800000 M⁻¹ s⁻¹ |  | 
